Assay results reported in the supplement of paper PMC10307832.

Experiments:
Assay in all cases: relative viability (nuclei count vs DMSO), 5 days (fraction); higher = more cells survive
Ponatinib + Foretinib = compound: Cc1ccc(C(=O)Nc2ccc(CN3CCN(C)CC3)c(C(F)(F)F)c2)cc1C#Cc1cnc2cccnn12 [Ponatinib] + COc1cc2c(Oc3ccc(NC(=O)C4(C(=O)Nc5ccc(F)cc5)CC4)cc3F)ccnc2cc1OCCCN1CCOCC1 [Foretinib] (partner 0.25 µM)
How it was run: (§1)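 Five library-drug doses in √10 steps were combined with a fixed anchor-drug dose, or a single drug was given alone, by pin tool to lung cancer cell lines in 1536-well plates the day after seeding. Nuclei were stained and counted after 5 days. Relative viability is the nuclei count in treated wells over that in vehicle wells, taken as the median of duplicate plates.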

Ponatinib + Vorinostat = compound: Cc1ccc(C(=O)Nc2ccc(CN3CCN(C)CC3)c(C(F)(F)F)c2)cc1C#Cc1cnc2cccnn12 [Ponatinib] + O=C(CCCCCCC(=O)Nc1ccccc1)NO [Vorinostat] (partner 1 µM)
How it was run: as §1

Pazopanib + Trametinib = compound: Cc1ccc(Nc2nccc(N(C)c3ccc4c(C)n(C)nc4c3)n2)cc1S(N)(=O)=O [Pazopanib] + CC(=O)Nc1cccc(-n2c(=O)n(C3CC3)c(=O)c3c(Nc4ccc(I)cc4F)n(C)c(=O)c(C)c32)c1 [Trametinib] (partner 0.02 µM)
How it was run: as §1

Pazopanib + Navitoclax = compound: Cc1ccc(Nc2nccc(N(C)c3ccc4c(C)n(C)nc4c3)n2)cc1S(N)(=O)=O [Pazopanib] + CC1(C)CCC(c2ccc(Cl)cc2)=C(CN2CCN(c3ccc(C(=O)NS(=O)(=O)c4ccc(N[C@H](CCN5CCOCC5)CSc5ccccc5)c(S(=O)(=O)C(F)(F)F)c4)cc3)CC2)C1 [Navitoclax] (partner 0.5 µM)
How it was run: as §1

Cell Line	relative viability (Ponatinib + Foretinib; first compound 0.002 µM)	relative viability (Ponatinib + Foretinib; first compound 0.006325 µM)	relative viability (Ponatinib + Foretinib; first compound 0.06325 µM)	relative viability (Ponatinib + Foretinib; first compound 0.2 µM)	relative viability (Ponatinib + Vorinostat; first compound 0.002 µM)	relative viability (Ponatinib + Vorinostat; first compound 0.006325 µM)	relative viability (Ponatinib + Vorinostat; first compound 0.06325 µM)	relative viability (Ponatinib + Vorinostat; first compound 0.2 µM)	relative viability (Pazopanib + Trametinib; first compound 0.01 µM)	relative viability (Pazopanib + Trametinib; first compound 0.03162 µM)	relative viability (Pazopanib + Trametinib; first compound 0.1 µM)	relative viability (Pazopanib + Trametinib; first compound 0.3162 µM)	relative viability (Pazopanib + Trametinib; first compound 1 µM)	relative viability (Pazopanib + Navitoclax; first compound 0.01 µM)	relative viability (Pazopanib + Navitoclax; first compound 0.03162 µM)	relative viability (Pazopanib + Navitoclax; first compound 0.1 µM)	relative viability (Pazopanib + Navitoclax; first compound 0.3162 µM)	relative viability (Pazopanib + Navitoclax; first compound 1 µM)
NCI-H441	1.14	0.836	1.01	0.986	0.647	0.675	0.822	0.757	0.5	0.445	0.474	0.563	0.734	0.516	0.493	1.12	0.553	0.765
NCI-H460	0.92	0.938	1	0.967	0.665	0.657	0.74	0.664	0.087	0.16	0.283	0.108	0.287	0.849	1.19	1.34	1.16	1.15
NCI-H520	0.628	0.786	0.496	0.596	0.686	0.59	0.663	0.499	0.606	0.78	0.644	0.751	0.6		1.18	0.955	1.05	0.98
NCI-H596	0.732	0.753	0.851	0.721	0.659	0.7	0.556	0.522	0.798	1.02	0.808	0.814	0.915	0.843	0.997	0.978	0.924	0.837
NCI-H647	1.12	1.01	1.24	1.08	0.381	0.588	0.686	0.513	0.377	0.48	0.487	0.609	0.439	1.14	1.08	1.21	1.17	1.16
NCI-H727	0.781	0.839	0.64	0.869	1.08	1.09	1.21	1.09	0.395		0.393	0.359	0.4	0.506	0.417	0.656	0.513	0.572
NCI-H838	1.02	1.03	1.05	0.955	0.755	0.764	0.773	0.664	0.465	0.558	0.483	0.599	0.594	1.1	1.22	1.21	1.24	1.26
NCI-H1355	0.988	0.943	1.1	0.971	0.564	0.604	0.677	0.615	0.363	0.409	0.397	0.446	0.534		0.899	1.09	1.07	0.979
NCI-H1395	0.903	0.996	0.945	0.904	0.483	0.578	0.678	0.416	0.833	1.14	1.05	1.01	0.952	1.15	1.25	1.24	1.33	1.28
